Source: ChEMBL document CHEMBL4699662, “Identification and structure-activity relationship studies of small molecule inhibitors of the human cathepsin D” (Bioorg Med Chem, 2021)

What was measured:
in vitro [1] = details: mouse, liver microsomes
in vitro [2] = details: human, liver microsomes
[3] = biological target: Cathepsin D (Homo sapiens) (UniProt P07339); details: dose 182.0 nM, time 130.0 min
Sequence of Cathepsin D (Homo sapiens) (P07339 65-162 limits assumed): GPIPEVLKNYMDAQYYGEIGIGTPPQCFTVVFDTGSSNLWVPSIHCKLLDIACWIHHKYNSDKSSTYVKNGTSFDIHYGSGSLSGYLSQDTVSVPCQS
Sequence of Cathepsin D (Homo sapiens) (P07339 169-412 limits assumed): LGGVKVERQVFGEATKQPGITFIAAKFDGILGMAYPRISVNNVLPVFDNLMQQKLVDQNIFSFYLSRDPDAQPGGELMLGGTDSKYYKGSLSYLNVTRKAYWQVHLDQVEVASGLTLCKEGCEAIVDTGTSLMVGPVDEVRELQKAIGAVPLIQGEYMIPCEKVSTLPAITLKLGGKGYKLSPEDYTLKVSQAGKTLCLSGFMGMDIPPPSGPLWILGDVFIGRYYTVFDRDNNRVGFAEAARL

Cc1ccc(S(=O)(=O)N(C)C)cc1NC(=O)[C@@H](CC1CCCCC1)NC(=N)NC(=O)c1ccc2c(c1)OCCO2
microsomal CLint at 0.5 h, 1 µM (in vitro [1]): 272 µL/min/mg | microsomal CLint at 0.5 h, 1 µM (in vitro [2]): 253 µL/min/mg

COc1ccc(CC(=O)NC(=N)N[C@@H](C(=O)Nc2cc(S(N)(=O)=O)ccc2C)C2CC2)cc1OC
microsomal CLint at 0.5 h, 1 µM (in vitro [1]): 100 µL/min/mg | microsomal CLint at 0.5 h, 1 µM (in vitro [2]): 40 µL/min/mg

CC(C)CC(=O)N[C@H](C(=O)N[C@H](C(=O)N[C@@H](CC(C)C)[C@@H](O)CC(=O)N[C@@H](C)C(=O)N[C@@H](CC(C)C)[C@@H](O)CC(=O)O)C(C)C)C(C)C
inhibition [3]: 98.7%

Cc1ccc(S(=O)(=O)N(C)C)cc1NC(=O)[C@@H](CC1CCCCC1)NC(=N)NC(=O)Cc1cccc(C(F)(F)F)c1
microsomal CLint at 0.5 h, 1 µM (in vitro [1]): 270 µL/min/mg | microsomal CLint at 0.5 h, 1 µM (in vitro [2]): 238 µL/min/mg

COc1ccc(CC(=O)NC(=N)N[C@@H](C(=O)Nc2cc(S(N)(=O)=O)ccc2C)C2CCCCC2)cc1OC
microsomal CLint at 0.5 h, 1 µM (in vitro [1]): 210 µL/min/mg | microsomal CLint at 0.5 h, 1 µM (in vitro [2]): 225 µL/min/mg

COc1ccc(CC(=O)NC(=N)NCC(=O)Nc2cc(S(N)(=O)=O)ccc2C)cc1OC
microsomal CLint at 0.5 h, 1 µM (in vitro [1]): 20 µL/min/mg | microsomal CLint at 0.5 h, 1 µM (in vitro [2]): 18 µL/min/mg

Cc1ccc(S(=O)(=O)N(C)C)cc1NC(=O)[C@@H](CC1CCCCC1)NC(=N)NC(=O)Cc1ccc(Cl)c(Cl)c1
microsomal CLint at 0.5 h, 1 µM (in vitro [1]): 238 µL/min/mg | microsomal CLint at 0.5 h, 1 µM (in vitro [2]): 248 µL/min/mg

COc1ccc(CC(=O)NC(=N)N[C@H](Cc2cccs2)C(=O)Nc2cc(S(N)(=O)=O)ccc2C)cc1OC
microsomal CLint at 0.5 h, 1 µM (in vitro [1]): 260 µL/min/mg | microsomal CLint at 0.5 h, 1 µM (in vitro [2]): 264 µL/min/mg

CNS(=O)(=O)c1ccc(C)c(NC(=O)[C@@H](CC2CCCCC2)NC(=N)NC(=O)Cc2ccc(F)c(OC)c2)c1
microsomal CLint at 0.5 h, 1 µM (in vitro [1]): 326 µL/min/mg | microsomal CLint at 0.5 h, 1 µM (in vitro [2]): 287 µL/min/mg
